# Laboratory results as given in patent US10689331B2, “IDO inhibitors” (Bristol-Myers Squibb Company, priority 2015, dated 2020).
# Target: T1, human IDO1 (Homo sapiens, UniProt P14902)
# T1 construct: expressed in transfected cells
# Test: HEK Human IDO-1 inhibition assay (kynurenine readout, Ehrlich reagent, absorbance 490 nm)
# Assay type: cell-based
# Details: human IDO1/HEK293 cells, incubated 20 hours with compound; 500 nM reference standard = 100% inhibition
# Procedure: HEK293 cells were transfected with a pCDNA-based mammalian expression vector harboring human IDO1 cDNA (NM 002164.2) by electroporation. They were cultured in medium (DMEM with 10% FBS) containing 1 mg/ml G418 for two weeks. Clones of HEK293 cells that stably expressed human IDO1 protein were selected and expanded for IDO inhibition assay.
# The human IDO1/HEK293 cells were seeded at 10,000 cells per 50 uL per well with RPMI/phenol red free media contains 10% FBS in a 384-well black wall clear bottom tissue culture plate (Matrix Technologies LLC) 100 nL of certain concentration of compound was then added to each well using ECHO liquid handling systems. The cells were incubated for 20 hours in 37° C. incubator with 5% CO2.
# The compound treatments were stopped by adding Trichloroacetic Acid (Sigma-Aldrich) to a final concentration at 0.2%. The cell plate was further incubated at 50° C. for 30 minute. The equal volume supernatant (20 uL) and 0.2% (w/v) Ehrlich reagent (4-dimethylaminobenzaldehyde, Sigma-Aldrich) in glacial acetic acid were mixed in a new clear bottom 384-well plate. This plate was then incubated at room temperature for 30 minute. The absorbance at 490 nm was measured on Envision plate reader. Compound IC50 values were calculated using the counts of 500 nM of a reference standard treatment as one hundred percent inhibition, and counts of no compound but DMSO treatment as zero percent inhibition.
# T1 sequence (P14902 whole entry): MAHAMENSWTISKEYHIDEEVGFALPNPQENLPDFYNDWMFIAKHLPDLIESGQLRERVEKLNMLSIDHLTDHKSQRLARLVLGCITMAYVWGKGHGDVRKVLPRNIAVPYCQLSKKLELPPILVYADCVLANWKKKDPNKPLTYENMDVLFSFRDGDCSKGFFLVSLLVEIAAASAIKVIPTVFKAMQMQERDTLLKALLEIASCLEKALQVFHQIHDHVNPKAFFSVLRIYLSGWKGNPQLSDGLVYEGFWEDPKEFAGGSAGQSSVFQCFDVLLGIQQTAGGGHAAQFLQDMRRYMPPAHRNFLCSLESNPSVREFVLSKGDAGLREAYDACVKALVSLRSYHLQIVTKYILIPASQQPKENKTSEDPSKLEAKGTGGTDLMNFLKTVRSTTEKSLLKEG
row,SMILES,IC50
1,"COc1ccc(NC(=O)Nc2cc(OC(C)C(=O)O)ccc2N(CC(C)C)C2CCCCC2)c(F)c1 (single isomer, unassigned) [Example 64-2, 2-(4-(cyclohexyl(isobutyl)amino)-3-(3-(2-fluoro-4-methoxyphenyl)ureido)phenoxy)propanoic acid]",< 5 nM
2,"CC(C)CN(c1cc(F)c(OCC(=O)O)cc1NC(=O)Nc1ccc(C#N)nc1)C1CCCCC1 [Example 128, 2-(5-(3-(6-cyanopyridin-3-yl)ureido)-4-(cyclohexyl(isobutyl)amino)-2-fluorophenoxy)acetic acid]",≥ 100 nM
3,"CC(C)CN(c1ccc(OCC(=O)O)cc1NC(=O)Nc1ccc(F)c(F)c1)C1CCCCC1 [Example 31, 2-(4-(cyclohexyl(isobutyl)amino)-3-(3-(3,4-difluorophenyl)ureido)phenoxy)acetic acid]",< 100 nM
4,"CCCN(Cc1ccccc1)c1ccc(OCC(=O)O)cc1NC(=O)Nc1ccc(C)cc1 [Example 159, 2-(4-(benzyl(propyl)amino)-3-(3-(p-tolyl)ureido)phenoxy)acetic acid]",≥ 100 nM
5,"CC(C)CN(c1ccc(OCC(=O)O)cc1NC(=O)Nc1cc(F)cc(Cl)c1)C1CCCCC1 [Example 37, 2-(3-(3-(3-chloro-5-fluorophenyl)ureido)-4-(cyclo-hexyl(isobutyl)amino)phenoxy) acetic acid]",≥ 100 nM
6,"Cc1c(F)cccc1NC(=O)Nc1cc(OCC(=O)O)ccc1N(CC(C)C)C1CCCCC1 [Example 28, 2-(4-(cyclohexyl(isobutyl)amino)-3-(3-(3-fluoro-2-methylphenyl)ureido)phenoxy)acetic acid]",≥ 100 nM
7,"Cc1ccc(NC(=O)Nc2cc(OC3(C(=O)O)CC3)ccc2N(CC(C)C)C2CCCCC2)cc1 [Example 94, 1-(4-(cyclohexyl(isobutyl)amino)-3-(3-(p-tolyl)ureido)phenoxy)cyclopropanecarboxylic acid]",< 5 nM
8,"Cc1ccc(CC(=O)Nc2cc(OC(C)C(=O)NS(=O)(=O)C3CC3)ccc2N(CC(C)C)C2CCCCC2)cc1 (racemic) [Example 78, (±)-2-(4-(cyclohexyl(isobutyl)amino)-3-(2-(p-tolyl)acetamido)phenoxy)-N-(cyclopropylsulfonyl)propanamide]",< 100 nM
9,"CC(C)CN(c1cc(F)c(OCC(=O)O)cc1NC(=O)Nc1cc(F)ccc1F)C1CCCCC1 [Example 126, 2-(4-(cyclohexyl(isobutyl)amino)-5-(3-(2,5-difluorophenyl)ureido)-2-fluorophenoxy)acetic acid]",< 5 nM
10,"COCC(Oc1ccc(N(CC(C)C)C2CCCCC2)c(NC(=O)Nc2ccc(Cl)cc2F)c1)C(=O)O (single isomer, unassigned) [Example 89-1, 2-(3-(3-(4-chloro-2-fluorophenyl)ureido)-4-(cyclohexyl(isobutyl)amino)phenoxy)-3-methoxypropanoic acid]",< 5 nM
11,"CC(C)CN(c1ccc(OCC(=O)O)cc1NC(=O)Nc1ccccc1F)C1CCCCC1 [Example 18, 2-(4-(cyclohexyl(isobutyl)amino)-3-(3-(2-fluorophenyl)ureido)phenoxy)acetic acid]",< 5 nM
12,CC(C)CN(c1ccc(OCC(=O)NS(=O)(=O)c2cccs2)cc1NC(=O)Nc1ccc(Cl)cc1F)C1CCCCC1 [Example 49],< 5 nM
13,"C=C(C)CN(c1ccc(OCC(=O)O)cc1NC(=O)Nc1ccc(Cl)cc1F)C1COC1 [Example 141, 2-(3-(3-(4-chloro-2-fluorophenyl)ureido)-4-((2-methylallyl)(oxetan-3-yl)amino)phenoxy)acetic acid]",≥ 100 nM
14,"CCCN(Cc1ccccc1)c1ccc(OCC(=O)O)cc1NC(=O)Nc1ccc(C(F)(F)F)cc1 [Example 162, 2-(4-(benzyl(propyl)amino)-3-(3-(4-(trifluoromethyl)phenyl)ureido)phenoxy)acetic acid]",≥ 100 nM
15,"CC(C)CN(c1ccc(OCC(=O)O)cc1NC(=O)Nc1ccc(-c2cnco2)cc1)C1CCCCC1 [Example 14, 2-(4-(cyclohexyl(isobutyl)amino)-3-(3-(4-(oxazol-5-yl)phenyl)ureido)phenoxy)acetic acid]",≥ 100 nM
16,"CC(C)CN(c1ccc(OCC(=O)NS(=O)(=O)N(C)C)cc1NC(=O)Nc1ccccc1F)C1CCCCC1 [Example 51, 2-(4-(cyclohexyl(isobutyl)amino)-3-(3-(2-fluoro-phenyl)ureido)phenoxy)-N—(N,N-dimethylsulfamoyl)acetamide]",< 5 nM
17,"Cc1ccc(NC(=O)Nc2cc(OC(C)C(=O)O)ccc2N(CC(C)C)C2CCCCC2)cc1 (single isomer, unassigned) [Example 60-1, 2-(4-(cyclohexyl(isobutyl)amino)-3-(3-(p-tolyl)ureido)phenoxy)propanoic acid]",< 5 nM
18,"CC(C)CN(c1ccc(OCC(=O)O)cc1NC(=O)Nc1nncs1)C1CCCCC1 [Example 6, 2-(3-(3-(1,3,4-thiadiazol-2-yl)ureido)-4-(cyclohexyl(isobutyl)amino)phenoxy)acetic acid]",≥ 100 nM
19,"Cc1cnc(NC(=O)COc2ccc(N(CC(C)C)C3CCCCC3)c(NC(=O)Nc3ccc(Cl)cc3F)c2)s1 [Example 111, 2-(3-(3-(4-chloro-2-fluorophenyl)ureido)-4-(cyclohexyl(isobutyl)amino)phenoxy)-N-(5-methylthiazol-2-yl)acetamide]",≥ 100 nM
20,"COCC(Oc1ccc(N(CC(C)C)C2CCCCC2)c(NC(=O)Nc2ccc(C)cc2)c1)C(=O)O (single isomer, unassigned) [Example 90-2, 2-(4-(cyclohexyl(isobutyl)amino)-3-(3-(p-tolyl)ureido)phenoxy)-3-methoxypropanoic acid]",< 100 nM
21,"CC(C)CN(c1ccc(OCC(=O)Nc2nccs2)cc1NC(=O)Nc1ccc(Cl)cc1F)C1CCCCC1 [Example 155, 2-(3-(3-(4-chloro-2-fluorophenyl)ureido)-4-(cyclohexyl(isobutyl)amino)phenoxy)-N-(thiazol-2-yl)acetamide]",≥ 100 nM
22,Cc1cc(NC(=O)Nc2cc(OC(C)C(=O)NS(=O)(=O)C3CC3)ccc2N(CC(C)C)C2CCCCC2)on1 (racemic) [Example 68],< 5 nM
23,"Cc1ccc(CC(=O)Nc2cc(OC(C)C(=O)O)ccc2N(CC(C)C)C2CCCCC2)cc1 (racemic) [Example 75, 2-(4-(cyclohexyl(isobutyl)amino)-3-(2-(p-tolyl)acetamido)phenoxy)propanoic acid]",< 100 nM
24,"CCCC(Oc1ccc(N(CC(C)C)C2CCCCC2)c(NC(=O)Nc2ccc(C)cc2)c1)C(=O)O (single isomer, unassigned) [Example 86-1, 2-(4-(cyclohexyl(isobutyl)amino)-3-(3-(p-tolyl)ureido)phenoxy)pentanoic acid]",< 100 nM
25,"CC(C)CN(c1cc(F)c(OCC(=O)O)cc1NC(=O)Nc1ccc(F)cc1F)C1CCCCC1 [Example 124, 2-(4-(cyclohexyl(isobutyl)amino)-5-(3-(2,4-difluorophenyl)ureido)-2-fluorophenoxy)acetic acid]",< 100 nM
26,"CC(C)CN(c1ccc(OCC(=O)O)cc1NC(=O)Cc1ccc(Cl)cc1F)C1CCCCC1 [Example 110, 2-(3-(2-(4-chloro-2-fluorophenyl)acetamido)-4-(cyclohexyl(isobutyl)amino)phenoxy)acetic acid]",< 100 nM
27,"CC(C)CN(Cc1ccc(Cl)cc1)c1ccc(OCC(=O)O)cc1NC(=O)Cc1ccc(Cl)cc1F [Example 167, 2-(3-(2-(4-chloro-2-fluorophenyl)acetamido)-4-((4-chlorobenzyl)(isobutyl)amino)phenoxy)acetic acid]",≥ 100 nM
